Test results from PubChem BioAssay (NCI).
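Each compound was tested at five concentrations against cells in 96-well plates for 48 hours. Abbreviation: GI50, concentration required for 50% inhibition of growth. At the TGI there is no net growth.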

Columns and labels:
Assay in all cases: NCI tumour cell line growth inhibition, 48 h
UO-31 renal = test system: UO-31 renal
786-0 renal = test system: 786-0 renal
RXF 393 renal = test system: RXF 393 renal
NCI-H23 lung = test system: NCI-H23 lung
MCF7 breast = test system: MCF7 breast
HCT-15 colon = test system: HCT-15 colon
K-562 leukemia = test system: K-562 leukemia
OVCAR-4 ovarian = test system: OVCAR-4 ovarian
T-47D breast = test system: T-47D breast
SW-620 colon = test system: SW-620 colon

Structure (SMILES) | TGI (UO-31 renal) [µM] | TGI (786-0 renal) [µM] | TGI (RXF 393 renal) [µM] | TGI (NCI-H23 lung) [µM] | TGI (MCF7 breast) [µM] | TGI (HCT-15 colon) [µM] | TGI (K-562 leukemia) [µM] | TGI (OVCAR-4 ovarian) [µM] | TGI (T-47D breast) [µM] | TGI (SW-620 colon) [µM] | GI50 (UO-31 renal) [µM] | GI50 (RXF 393 renal) [µM] | GI50 (NCI-H23 lung) [µM] | GI50 (MCF7 breast) [µM] | GI50 (HCT-15 colon) [µM] | GI50 (K-562 leukemia) [µM] | GI50 (SW-620 colon) [µM] | GI50 (OVCAR-4 ovarian) [µM] | GI50 (T-47D breast) [µM]
c1ccc2nn(C3CCCCO3)nc2c1 (stereo unspecified) | > 100 | > 100 | > 100 | > 100 | > 100 | > 100 | > 100 | > 100 | > 100 |  |  |  |  |  |  |  |  |  | 
COC1=C(OC)C(=O)C(Cc2c(Cl)nc3n2CCS3)=C(C)C1=O | 28.3 | 37.9 | 36.4 | 47.5 | 33 | 39.8 | 39.9 | 21 | 54.1 | 33.8 |  |  |  |  |  |  |  |  | 
Cc1nn(C(=O)c2ccc(Cl)cc2)c2c1C(c1ccco1)SC(N)=N2 (stereo unspecified) |  | > 10 | > 10 | > 10 | > 10 | > 10 | > 10 | > 10 | > 10 | > 10 |  |  |  |  |  |  |  |  | 
O=C(CC(=O)Nc1ccccc1Cl)NNC(Sc1ccccc1)c1cc(N=Nc2ccc(Br)cc2)ccc1O (stereo unspecified) | 3.96 | 2.42 | 5.82 | 7.39 | 3.22 | > 10 | 6.63 | 5.98 | 9.57 | 2.77 |  |  |  |  |  |  |  |  | 
COc1cnnc2c(C)c(-c3ccccc3)nn12 | > 100 | > 100 | > 100 | > 100 | > 100 | > 100 | > 100 | > 100 | > 100 | > 100 |  |  |  |  |  |  |  |  | 
O=c1c(S(=O)(=O)Oc2ccccc2)coc2cc(F)ccc12 | > 100 | > 100 | > 100 | > 100 | > 100 | > 100 | > 100 | > 100 | > 100 | > 100 |  |  |  |  |  |  |  |  | 
COc1cc(C2c3cc4c(cc3OC(N3CCOCC3)C2C)OCO4)cc(OC)c1OC(C)=O (stereo unspecified) | > 100 | > 100 | > 62.1 | > 95.2 | > 100 | > 100 | 49.2 | > 100 | > 81.8 | > 100 |  |  |  |  |  |  |  |  | 
Cc1csc2n(C)c(=O)c3ccccc3[n+]12 | > 100 | > 100 | > 100 | > 100 | > 100 | > 100 | > 100 | > 100 | > 100 | > 100 |  |  |  |  |  |  |  |  | 
Cc1ccc(Nc2nc(NS(=O)(=O)c3cc(C)c(Cl)cc3S)n[nH]2)cc1 | > 100 | > 100 | > 100 | > 100 | > 100 | > 100 | > 100 | > 100 | > 100 | > 100 |  |  |  |  |  |  |  |  | 
C=C1[C@H](OCC(C)C)[C@@H](OC(=O)C(C)CC)[C@@H](O)C(C)(C)/C=C/[C@H](C)C(=O)[C@@]2(O)C[C@H](C)[C@H](O)[C@@H]2[C@H]1OC(=O)C(C)CC (stereo partly specified) | > 5.12 | > 20 | > 20 | > 15.8 | > 16 | > 20 | > 13.5 | > 20 | > 20 | > 20 |  |  |  |  |  |  |  |  | 
O=C(NNCc1ccccc1O)c1ccccc1O | 16.5 | > 100 | > 100 | > 100 | 80.3 | > 100 | > 100 | > 100 | 35 | > 100 |  |  |  |  |  |  |  |  | 
O=C(NC(CO)CO)c1ccc2cc(C(=O)N3CC(CCl)c4ccc([N+](=O)[O-])cc43)[nH]c2c1 (stereo unspecified) | > 100 | > 100 | > 100 | > 100 | > 100 | > 100 | > 100 | > 100 | 64.2 | > 100 |  |  |  |  |  |  |  |  | 
CCOC(=O)CCC(NC(=O)c1ccc(NCc2ccc3nc(-c4ccccc4)c(Cl)nc3c2)c2ccccc12)C(=O)OCC (stereo unspecified) | > 100 | > 100 | > 100 | > 100 | > 100 | > 100 | > 100 | > 100 | > 100 | > 100 |  |  |  |  |  |  |  |  | 
O=C1C(CN2CCCC2)CCCC1CN1CCCC1 (stereo unspecified) | 2.31 | 2.42 | 8.08 | 4.27 | 2.8 | 4.54 | 2.27 | 20.3 | 6.96 | 0.32 |  |  |  |  |  |  |  |  | 
CCOC(=O)O/N=C1/C(c2c(O)[nH]c3ccccc23)=Nc2ccccc21 | 40.6 | 28 | 6.16 | 25.5 | 18.4 | 20.4 | > 100 | 45.2 | 25.6 | > 100 |  |  |  |  |  |  |  |  | 
CC(C)(C)OC(=O)NCCNC(=O)CN(CC(=O)O)C1CCCCC1N(CC(=O)O)CC(=O)O (stereo unspecified) | > 100 | > 100 | > 100 | > 100 | > 100 | > 100 | > 100 | > 100 | > 100 | > 100 |  |  |  |  |  |  |  |  | 
Cc1nc(N)nc(N)c1N1CCN(Cc2ccccc2)CC1 | > 100 | > 100 | > 100 | > 100 | > 100 | > 100 | > 100 | > 100 | > 100 | > 100 |  |  |  |  |  |  |  |  | 
COc1cccc(/C=N/n2c(Cc3ccc(Cl)cc3)n[nH]c2=O)c1 | > 100 | > 71.9 | 11.2 | > 70.3 | > 100 | > 100 | > 100 | > 100 | > 68.2 | > 100 |  |  |  |  |  |  |  |  | 
COC1CCC(n2c([C@@H]3CCCC(=O)N3c3ccc(F)c(F)c3)nc3cc(-c4c(C)noc4C)ccc32)CC1 (stereo partly specified) | 14.5 |  | 17.7 | 40.5 | 15.1 | 38.3 | > 100 | 26.5 | 50.7 | > 100 | 1.64 | 4.82 | 13.3 | 0.626 | 4.73 | 2.8 | 19.1 | 0.782 | 2.03
Cc1ccsc1/C=N/Nc1ccccn1 | > 100 | > 100 | > 100 | > 100 | > 100 | > 100 | > 100 | > 100 | > 100 | > 100 |  |  |  |  |  |  |  |  | 
